Legend:
Format in all cases: in vivo
[1] = tested on: Amaranthus palmeri (AMAPA); assay: Pre-emergence Test (glasshouse, percentage damage to the plant); details: 1000 g/ha unless otherwise stated, Amaranthus palmeri
[2] = tested on: Echinochloa crus-galli (ECHCG); assay: as above; details: 1000 g/ha unless otherwise stated, Echinochloa crus-galli
Zea mays (ZEAMX) [3] = assay: as above; details: 1000 g/ha unless otherwise stated, Zea mays
[4] = tested on: Ipomoea hederacea (IPOHE); assay: as above; details: 1000 g/ha unless otherwise stated, Ipomoea hederacea
Setaria faberi (SETFA) [5] = assay: as above; details: 1000 g/ha unless otherwise stated, Setaria faberi
[6] = tested on: Amaranthus retoflexus (AMARE); assay: as above; details: 1000 g/ha unless otherwise stated, Amaranthus retoflexus
Setaria faberi (SETFA) [7] = assay: Post-emergence Test (glasshouse, percentage damage to the plant); details: post-emergence; 1000 g/ha unless otherwise stated; evaluated after 13 days
How it was run: (§1)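 Scored 13 days after spraying as percentage plant damage in five bands (5=81–100%, 4=61–80%, 3=41–60%, 2=21–40%, 1=0–20%). Spray at 1000 g/ha unless stated, in acetone/water 50:50 plus 0.5% Tween 20, onto sown glasshouse pots (24/16 °C, 14 h light, 65% humidity).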

Zea mays (ZEAMX) [8] = assay: as above; details: post-emergence; 1000 g/ha unless otherwise stated; evaluated after 13 days
How it was run: as §1

[9] = tested on: Amaranthus retoflexus (AMARE); assay: as above; details: post-emergence; 1000 g/ha unless otherwise stated; evaluated after 13 days
How it was run: (§2)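 Damage was rated 13 days after treatment and expressed on a five-point scale: 5=81-100%, 4=61-80%, 3=41-60%, 2=21-40%, 1=0-20%. Spray was applied at 1000 g/ha unless otherwise stated, from acetone/water (50:50) with 0.5% Tween 20, to sown pots.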

[10] = tested on: Ipomoea hederacea (IPOHE); assay: as above; details: post-emergence; 1000 g/ha unless otherwise stated; evaluated after 13 days
How it was run: as §1

[11] = tested on: Echinochloa crus-galli (ECHCG); assay: as above; details: post-emergence; 1000 g/ha unless otherwise stated; evaluated after 13 days
How it was run: as §2

[12] = tested on: Amaranthus palmeri (AMAPA); assay: as above; details: post-emergence; 1000 g/ha unless otherwise stated; evaluated after 13 days
How it was run: as §2

Row | SMILES | percentage damage to the plant, AMAPA (five-point scale) [1] | percentage damage to the plant, ECHCG (five-point scale) [2] | percentage damage to the plant, ZEAMX (five-point scale) (Zea mays (ZEAMX) [3]) | percentage damage to the plant, IPOHE (five-point scale) [4] | percentage damage to the plant, SETFA (five-point scale) (Setaria faberi (SETFA) [5]) | percentage damage to the plant, AMARE (five-point scale) [6] | SETFA, percentage damage caused to the plant (five-point scale) (Setaria faberi (SETFA) [7]) | ZEAMX, percentage damage caused to the plant (five-point scale) (Zea mays (ZEAMX) [8]) | AMARE, percentage damage caused to the plant (five-point scale) [9] | IPOHE, percentage damage caused to the plant (five-point scale) [10] | ECHCG, percentage damage caused to the plant (five-point scale) [11] | AMAPA, percentage damage caused to the plant (five-point scale) [12]
1 | CCn1c(C)c(-c2ccc(Cl)cc2Cl)c(=O)c(C(=O)O)c1-c1cnc(Cl)c(Cl)c1 [Compound 209, 5-(2,4-dichlorophenyl)-2-(5,6-dichloro-3-pyridyl)-1-ethyl-6-methyl-4-oxo-pyridine-3-carboxylic acid] | 5 (5=81-100%) | 4 (4=61-80%) | 0 | 1 (1=0-20%) | 4 (4=61-80%) | 5 (5=81-100%) | 5 (5=81-100%) | 4 (4=61-80%) | 5 (5=81-100%) | 4 (4=61-80%) | 5 (5=81-100%) | 5 (5=81-100%)
2 | CCn1c(C)c(-c2ccc(F)cc2F)c(=O)c(C(=O)O)c1-c1cnc(Cl)c(Cl)c1 [Compound 210, 2-(5,6-dichloro-3-pyridyl)-5-(2,4-difluorophenyl)-1-ethyl-6-methyl-4-oxo-pyridine-3-carboxylic acid] | 4 (4=61-80%) | 1 (1=0-20%) | 0 | 0 | 2 (2=21-40%) | 3 (3=41-60%) | 4 (4=61-80%) | 3 (3=41-60%) | 5 (5=81-100%) | 3 (3=41-60%) | 4 (4=61-80%) | 4 (4=61-80%)
3 | CCn1c(C)c(-c2ccc(F)cc2)c(=O)c(C(=O)O)c1-c1cnc(Cl)c(Cl)c1 [Compound 211, 2-(5,6-dichloro-3-pyridyl)-1-ethyl-5-(4-fluorophenyl)-6-methyl-4-oxo-pyridine-3-carboxylic acid] | 4 (4=61-80%) | 1 (1=0-20%) | 0 | 0 | 0 | 1 (1=0-20%) | 1 (1=0-20%) | 1 (1=0-20%) | 2 (2=21-40%) | 1 (1=0-20%) | 1 (1=0-20%) | 3 (3=41-60%)
4 | CCn1c(C)c(-c2ccc(F)cc2)c(=O)c(C(=O)OC)c1-c1cnc(Cl)c(Cl)c1 [Compound 212, methyl 2-(5,6-dichloro-3-pyridyl)-1-ethyl-5-(4-fluorophenyl)-6-methyl-4-oxo-pyridine-3-carboxylate] | 1 (1=0-20%) | 2 (2=21-40%) | 0 | 0 | 3 (3=41-60%) | 0 | 0 | 0 | 1 (1=0-20%) | 0 | 0 | 1 (1=0-20%)

Reference: patent publication US12660819B2, “Herbicidal derivatives” (SYNGENTA CROP PROTECTION AG, priority 2020, dated 2026)
